These results are taken from patent US9051310B2, “Nicotinamide derivative or salt thereof” (FUJIFILM Corporation, priority 2011, dated 2015).

Bounds are passed on as bounds.

For assay [1], the system named is THP-1 cells (TNFα secretion on human IgG-coated plate). Description: TNFα generation assay. In kind it is cell-based. As to conditions: IFN-γ differentiated THP-1 cells, 7 hours, AlphaLISA, read-out: IC50 of TNFα generation inhibitory activity. How it is done:
THP-1 cells (2×10^5 cells/ml), which were human monocytoid cells, were cultured in the presence of 10 ng/ml IFN-γ (Roche) for 2 days, and they were induced to differentiate into macrophage-like cells. The differentiation-induced THP-1 cells were recovered, and the cells (1×10^6 cell/ml) were then allowed to react with a predetermined concentration of test compound at room temperature for 30 minutes. On the other hand, 100 μl of human IgG (10 μg/ml, SIGMA-ALDRICH) diluted with PBS was added to a 96-well plate, and it was then incubated at room temperature overnight. Thereafter, the resultant was washed with PBS twice to produce a human IgG-coated plate. A cell fluid that contained a compound was plated on the obtained human IgG-coated plate (5×10^4 cells/well), and it was then cultured for 7 hours. Thereafter, the cultured solution was recovered, and the amount of TNFα secreted into the culture solution was then measured by the AlphaLISA method (PerkinElmer).
Background: Bead proximity is the source of the signal in Alpha formats.

Assay [2] deals with T1, glutathione S-transferase (GST)-linked full-length human Syk protein (Homo sapiens, UniProt P43405).
T1 construct: glutathione S-transferase (GST)-linked full-length human Syk protein; purchased Carna Biosciences; host or cells: Baculovirus expression system
Description: Syk enzyme assay. In kind it is biochemical. The conditions noted are these: 0.83 nM Syk, time-resolved fluorescence; read-out: IC50 of Syk-inhibitory activity. The essentials: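 Phosphotyrosine on a biotin-peptide substrate (0.5 μM) was read by time-resolved fluorescence at 615 and 665 nm with Eu-anti-pTyr antibody and APC-streptavidin after 1 h EDTA stop.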

For `CC[C@H](N)[C@@H](C)Nc1nc(Nc2cc(F)cc3c2cnn3CCOC)c(C(N)=O)cc1F` [Example 2-378, 6-(((2R,3S)-3-aminopentan-2-yl)amino)-5-fluoro-2-((6-fluoro-1-(2-methoxyethyl)-1H-indazol-4-yl)amino)nicotinamide], the figures for the IC50 in assay [1] and in assay [2] were 65 to 130 nM and less than 10 nM, respectively.

As to `CCC[C@@H](Nc1nc(Nc2ccc3c(c2)c(OC)nn3C)c(C(N)=O)cc1F)[C@H](C)N` [Example 2-80, 6-(((2S,3R)-2-aminohexan-3-yl)amino)-5-fluoro-2-((3-methoxy-1-methyl-1H-indazol-5-yl)amino)nicotinamide], the IC50 was 65 to 130 nM in assay [1] and less than 10 nM in assay [2].

On to `CC(=O)c1cccc(Nc2nc(N[C@@H]3CCCC[C@@H]3N)c(F)cc2C(N)=O)c1` [Example 2-442, 2-((3-acetylphenyl)amino)-6-(((1R,2S)-2-aminocyclohexyl)amino)-5-fluoronicotinamide], for which the figures for the IC50 in assay [1] and in assay [2] were 65 to 130 nM and less than 10 nM, respectively.

In the case of `COCCn1nc(OC)c2cc(Nc3nc(N[C@@H]4CCOC[C@@H]4N)c(F)cc3C(N)=O)ccc21` [Example 2-329, 6-(((3R,4R)-3-aminotetrahydro-2H-pyran-4-yl)amino)-5-fluoro-2-((3-methoxy-1-(2-methoxyethyl)-1H-indazol-5-yl)amino)nicotinamide], the IC50 was 65 to 130 nM in assay [1] and less than 10 nM in assay [2].

For `CCCC[C@@H](Nc1nc(Nc2cnc(C)c(C)c2)c(C(N)=O)cc1F)[C@H](C)N` [Example 2-19, 6-(((2S,3R)-2-aminoheptan-3-yl)amino)-2-((5,6-dimethylpyridin-3-yl)amino)-5-fluoronicotinamide], the IC50 in assay [1] was 130 to 200 nM; in assay [2] it was less than 10 nM.

Regarding `COc1nn(C)c2ncc(Nc3nc(N[C@@H]4CCCC[C@@H]4N)c(F)cc3C(N)=O)cc12` [Example 2-249, 6-(((1R,2S)-2-aminocyclohexyl)amino)-5-fluoro-2-((3-methoxy-1-methyl-1H-pyrazolo[3,4-b]pyridin-5-yl)amino)nicotinamide], the IC50 in assay [1] was 65 to 130 nM; in assay [2] it was less than 10 nM.

`Cc1nn(C)c2ncc(Nc3nc(N[C@@H](CN)CC(C)C)c(F)cc3C(N)=O)cc12` [Example 2-240, (R)-6-((1-amino-4-methylpentan-2-yl)amino)-2-((1,3-dimethyl-1H-pyrazolo[3,4-b]pyridin-5-yl)amino)-5-fluoronicotinamide]: the IC50 in assay [1] is 130 to 200 nM; in assay [2], less than 10 nM.

With `CC[C@@H](Nc1nc(Nc2cncc(-n3cc(C)cn3)c2)c(C(N)=O)cc1F)[C@H](C)N` [Example 2-521, 6-(((2S,3R)-2-aminopentan-3-yl)amino)-5-fluoro-2-((5-(4-methyl-1H-pyrazol-1-yl)pyridin-3-yl)amino)nicotinamide], the IC50 in assay [1] was in the range of 65 to 130 nM; in assay [2], 10 to 50 nM.

As for `C[C@H](N)[C@H](Nc1nc(Nc2ccc3c(c2)c(N(C)C)nn3C)c(C(N)=O)cc1F)C1CC1` [Example 2-72, 6-(((1R,2S)-2-amino-1-cyclopropylpropyl)amino)-2-((3-(dimethylamino)-1-methyl-1H-indazol-5-yl)amino)-5-fluoronicotinamide], the results for the IC50 in assay [1] and in assay [2] were 130 to 200 nM and less than 10 nM, respectively.

For `CCn1ncc2cc(Nc3nc(N[C@H](c4ccccc4F)[C@H](C)N)c(F)cc3C(N)=O)ccc21` [Example 2-410, 6-(((1R,2S)-2-amino-1-(2-fluorophenyl)propyl)amino)-2-((1-ethyl-1H-indazol-5-yl)amino)-5-fluoronicotinamide], the figures for the IC50 in assay [1] and in assay [2] were 65 to 130 nM and less than 10 nM, respectively.

In the case of `COC[C@@H](Nc1nc(Nc2ccc3c(c2)c(C)nn3CC(F)F)c(C(N)=O)cc1F)[C@H](C)N` [Example 2-139, 6-(((2S,3S)-3-amino-1-methoxybutan-2-yl)amino)-2-((1-(2,2-difluoroethyl)-3-methyl-1H-indazol-5-yl)amino)-5-fluoronicotinamide], the IC50 is 65 to 130 nM in assay [1] and less than 10 nM in assay [2].

Consider `COCCn1nc(C)c2cc(Nc3nc(N[C@H](C4CC4)[C@H](C)N)c(F)cc3C(N)=O)ccc21` [Example 2-133, 6-(((1R,2S)-2-amino-1-cyclopropylpropyl)amino)-5-fluoro-((1-(2-methoxyethyl)-3-methyl-1H-indazol-5-yl)amino)nicotinamide], for which the IC50 is 65 to 130 nM in assay [1] and less than 10 nM in assay [2].

As to `CCn1ncc2ccc(Nc3nc(N[C@H](CC(C)C)[C@H](C)N)c(F)cc3C(N)=O)cc21` [Example 2-11, 6-(((2S,3R)-2-amino-5-methylhexan-3-yl)amino)-2-((1-ethyl-1H-indazol-6-yl)amino)-5-fluoronicotinamide], the values for the IC50 in assay [1] and in assay [2] were 130 to 200 nM and less than 10 nM, respectively.

As for `CCn1ncc2c(Nc3nc(N[C@H](C4CC4)[C@H](C)N)c(F)cc3C(N)=O)cc(F)cc21` [Example 2-372, 6-(((1R,2S)-2-amino-1-cyclopropylpropyl)amino)-2-((1-ethyl-6-fluoro-1H-indazol-4-yl)amino)-5-fluoronicotinamide], the IC50 in assay [1] was 130 to 200 nM; in assay [2] it was less than 10 nM.

Turning to `Cc1ncc(Nc2nc(N[C@H](C3CC3)[C@H](C)N)c(F)cc2C(N)=O)cc1F` [Example 2-220, 6-(((1R,2S)-2-amino-1-cyclopropylpropyl)amino)-5-fluoro-2-((5-fluoro-6-methylpyridin-3-yl)amino)nicotinamide], the IC50 in assay [1] fell in the range of 130 to 200 nM; in assay [2], 10 to 50 nM.

Take `CCn1ncc2cc(Nc3nc(N[C@H](c4cccc(F)c4)[C@H](C)N)c(F)cc3C(N)=O)ccc21` [Example 2-413]: the IC50 in assay [1] was 65 to 130 nM; in assay [2] it was less than 10 nM.

Take `CC(C)C[C@@H](Nc1nc(Nc2ccc3cnn(C)c3c2)c(C(N)=O)cc1F)[C@H](C)N` [Example 2-37, 6-(((2S,3R)-2-amino-5-methylhexan-3-yl)amino)-5-fluoro-2-((1-methyl-1H-indazol-6-yl)amino)nicotinamide]: the IC50 in assay [1] is 65 to 130 nM; in assay [2] it was less than 10 nM.

Turning to `NC(=O)c1cc(F)c(N[C@@H]2CCCC[C@@H]2N)nc1Nc1cccc(-n2ccnn2)c1` [Example 2-438, 2-((3-(1H-1,2,3-triazol-1-yl)phenyl)amino)-6-(((1R,2S)-2-aminocyclohexyl)amino)-5-fluoronicotinamide], the values for the IC50 in assay [1] and in assay [2] were less than 65 nM and less than 10 nM, respectively.

As for `CC[C@H](N)[C@@H](CC)Nc1nc(Nc2cccc3c2cnn3CC)c(C(N)=O)cc1F` [Example 2-101, 6-(((3R,4S)-4-aminohexan-3-yl)amino)-2-((1-ethyl-1H-indazol-4-yl)amino)-5-fluoronicotinamide], the IC50 is 130 to 200 nM in assay [1] and less than 10 nM in assay [2].

In the case of `CC[C@@H](Nc1nc(Nc2cnc(C)c(F)c2)c(C(N)=O)cc1F)[C@H](C)N` [Example 2-222, 6-(((2S,3R)-2-aminopentan-3-yl)amino)-5-fluoro-2-((5-fluoro-6-methylpyridin-3-yl)amino)nicotinamide], the IC50 in assay [1] was in the range of 130 to 200 nM; in assay [2] it was 10 to 50 nM.

In the case of `CC[C@H](N)[C@@H](C)Nc1nc(Nc2ccnc(OCCOC)c2)c(C(N)=O)cc1F` [Example 2-42, 6(((2R,3S)-3-aminopentan-2-yl)amino)-5-2-((2-(2-methoxyethoxy)pyridin-4-yl)amino)nicotinamide], the IC50 was in the range of 65 to 130 nM in assay [1] and 10 to 50 nM in assay [2].

Consider `CC[C@H](N)[C@@H](C)Nc1nc(Nc2cnc(C)c(-n3nccn3)c2)c(C(N)=O)cc1F` [Example 2-33, 6-(((2R,3S)-3-aminopentan-2-yl)amino)-5-fluoro-2-((6-methyl-5-(2H-1,2,3-triazol-2-yl)pyridin-3-yl)amino)nicotinamide], for which the values for the IC50 in assay [1] and in assay [2] were 130 to 200 nM and 10 to 50 nM, respectively.

Turning to `COc1ccc(Nc2nc(N[C@H](C3CCC3)[C@H](C)N)c(F)cc2C(N)=O)cc1OC` [Example 2-29], the figures for the IC50 in assay [1] and in assay [2] were 65 to 130 nM and less than 10 nM, respectively.

`COC[C@@H](Nc1nc(Nc2cc(Cl)c3c(cnn3C)c2)c(C(N)=O)cc1F)[C@H](C)N` [Example 2-149, 6-(((2S,3S)-3-amino-1-methoxybutan-2-yl)amino)-2-((7-chloro-1-methyl-1H-indazol-5-yl)amino)-5-fluoronicotinamide]: the values for the IC50 in assay [1] and in assay [2] were 65 to 130 nM and less than 10 nM, respectively.

With `COC[C@@H](Nc1nc(Nc2ccc3c(c2)c(C)nn3C)c(C(N)=O)cc1F)[C@H](C)N` [Example 2-196, 6-(((2S,3S)-3-amino-1-methoxybutan-2-yl)amino)-2-((1,3-dimethyl-1H-indazol-5-yl)amino)-5-fluoronicotinamide], the IC50 in assay [1] is 65 to 130 nM; in assay [2] it was less than 10 nM.

As to `CC(C)C[C@H](CN)Nc1nc(Nc2cc(F)c3c(c2)c(N(C)C)nn3C)c(C(N)=O)cc1F` [Example 2-185, (R)-6-((1-amino-4-methylpentan-2-yl)amino)-2-((3-(dimethylamino)-7-fluoro-1-methyl-1H-indazol-5-yl)amino)-5-fluoronicotinamide], the IC50 in assay [1] was 130 to 200 nM; in assay [2], less than 10 nM.
